Measured values reported in patent US5196421A, “Excitatory amino acid receptor antagonists in methods for the use thereof” (priority 1992, dated 1993).
“And” between values parts separate entries of the source, which are not always exact repeats. Equal entries are not always repeated.

How the values were obtained:
[1] = test system: AMPA receptor ([^3 H]AMPA binding, crude membranes of rat forebrain); assay: [^3 H]-AMPA displacement, EAA receptor binding; details: 10 μM test compound, [^3 H]AMPA 5 nM, 100 mM KSCN
Experimental: (§1) Referring to Table IV, there are shown the results obtained in testing a representative number of these compounds. In Table IV, the activity of the compounds for EAA receptor binding is indicated. Compounds were evaluated for their ability to displace [^3 H]-CGS191755, [^3 H]-glycine, [^3 H]-AMPA and [^3 H]-kainate at a screening concentration of 10 μM.
(§2) Binding assays, except for glycine binding, were performed in accordance with the methods described in Schoepp et al., J. Pharmacology and Exp. Therap., Vol. 255, No. 3, pp. 1301-1308 (1990). For all binding assays, male Sprague-Dawley rats (150-175 g) were used. Displacement of the specific binding of ^3 H]CGS19755 (10 nM) to Triton-X-treated synaptosomal membranes of rat forebrain was used to determine NMDA receptor affinity. Nonspecific binding was determined using 10 μM L-glutamate. Samples were incubated in an ice bath for 30 minutes, and bound ligand was separated from the free ligand by rapid filtration through Whatman GF/B glass fiber filters.
The binding of [^3 H]AMPA (5 nM) was conducted with crude membranes of rat forebrain in the presence of 100 mM KSCN, as described by Nielsen et al., "Studies on Receptor-Active Conformations of Excitatory Amino Acid Agonists and Antagonists," Eur. J. Med. Chem. Chim. Ther. 21:433-437 (1986). Nonspecific binding was determined with 10 μM nonlabeled AMPA.

[2] = target: T1, Strychnine-Insensitive [^3 H]Glycine Binding Sites, washed membranes of rat brain cortex (Rattus norvegicus, UniProt P35439); assay: biochemical; details: for inhibition at 10 µM: 1 h, read-out: [^3 H]-Glycine Binding % DSPL10 @ 10 μM, 10 μM test compound, 60 minutes on ice; for [^3 H]-Glycine Binding % DSPL10 @ 10 μM: 10 μM test compound, 60 minutes on ice
T1 construct: washed membranes of rat brain cortex; from tissue; host or cells: brain cortex membranes, male Sprague-Dawley rats (150-175 g)
Experimental: as §1, §2
The compounds were examined for their ability to displace [^3 H]-glycine from washed membranes of rat brain cortex according to the methods of Shinohara et al., "Ontogeny of Strychnine-Insensitive [^3 H]Glycine Binding Sites in Rat Forebrain", Neurosci. Lett. 105 (1990) 307-311. In each assay, […] [^3 H]-glycine and 25 μg tissue were incubated with test compounds (10 μM in a total volume of 0.5 ml for 60 minutes on ice; incubations were terminated by centrifugation. Non-specific binding was defined as that remaining in the presence of 10 μM D-serine.

[3] = test system: kainate (KA) receptor ([^3 H]Kainate binding, washed synaptosomal membranes from the rat forebrain); assay: [^3 H]-kainate displacement, EAA receptor binding; details: 10 μM test compound, [^3 H]Kainate 5 nM, pH 7.4, 30 min
Experimental: as §1, §2
[^3 H]Kainate binding was performed using washed synaptosomal membranes from the rat forebrain, prepared as described by Simon et al., "Binding of [^3 H]Kainic Acid, an Analogue of L-Glutamate, to Brain Membranes," J. Neurochem. 26:141-147 (1976). [^3 H]Kainate (5 nM) was added to 50 mM Tris-HCl buffer (pH 7.4 at 4°) containing 200-300 μg/ml of tissue protein. Samples were incubated for 30 minutes in an ice bath and then rapidly filtered using a Brandel cell harvester and Whatman GF/C filters. Filters were washed twice with 3 ml of cold buffer. Nonspecific binding was determined using 100 μM nonlabeled kainate.

SMILES: Cc1nnc2cnc3cc(Cl)c(Cl)cc3n12 [Compound 1, 1-methyl-7,8-dichloro-1,2,4-triazolo[4,3-a]quinoxaline]
- AMPA % DSPL @ 10 μM [1]: 35.1%
- inhibition at 10 µM [2]: 0%
- KA % DSPL @ 10 μM [3]: 16.8%

SMILES: Cc1nnc2c(=O)[nH]c3cc(Cl)c(Cl)cc3n12 [Compound 2, 1-methyl-7,8-dichloro-1,2,4-triazolo[4,3-a]quinoxalin-4(5H)-one]
- AMPA % DSPL @ 10 μM ([1]; 10 µM): 78.3% and 75.1%
- inhibition at 10 µM [2]: 18%
- KA % DSPL @ 10 μM [3]: 28.0%

SMILES: CCc1nnc2cnc3cc(Cl)c(Cl)cc3n12 [Compound 3, 1-ethyl-7,8-dichloro-1,2,4-triazolo[4,3-a]quinoxaline]
- AMPA % DSPL @ 10 μM [1]: 7.9%
- inhibition at 10 µM [2]: 63%
- KA % DSPL @ 10 μM [3]: 12.0%

SMILES: CCc1nnc2c(=O)[nH]c3cc(Cl)c(Cl)cc3n12 [Compound 4, 1-ethyl-7,8-dichloro-1,2,4-triazolo[4,3-a]quinoxalin-4(5H)-one]
- AMPA % DSPL @ 10 μM ([1]; 10 µM): 55.1% and 52.3%
- inhibition at 10 µM [2]: 53%
- KA % DSPL @ 10 μM [3]: 21.4%

SMILES: CCCc1nnc2cnc3cc(Cl)c(Cl)cc3n12 [Compound 5, 1-n-propyl-7,8-dichloro-1,2,4-triazolo[4,3-a]quinoxaline]
- AMPA % DSPL @ 10 μM [1]: -1.6%
- inhibition at 10 µM [2]: 2%
- KA % DSPL @ 10 μM [3]: 3.9%

SMILES: CCCc1nnc2c(=O)[nH]c3cc(Cl)c(Cl)cc3n12 [Compound 6, 1-n-propyl-7,8-dichloro-1,2,4-triazolo[4,3-a]quinoxalin-4(5H)-one]
- AMPA % DSPL @ 10 μM ([1]; 10 µM): 77.1% and 85.6%
- inhibition at 10 µM [2]: 75%
- KA % DSPL @ 10 μM [3]: 32.1%

SMILES: CCCCc1nnc2cnc3cc(Cl)c(Cl)cc3n12 [Compound 7, 1-n-butyl-7,8-dichloro-1,2,4-triazolo[4,3-a]quinoxaline]
- AMPA % DSPL @ 10 μM [1]: 4.2%
- inhibition at 10 µM [2]: -2%
- KA % DSPL @ 10 μM [3]: -6.4%

SMILES: CCCCc1nnc2c(=O)[nH]c3cc(Cl)c(Cl)cc3n12 [Compound 8, 1-n-butyl-7,8-dichloro-1,2,4-triazolo[4,3-a]quinoxalin-4(5H)-one]
- inhibition at 10 µM [2]: 60%
- KA % DSPL @ 10 μM [3]: 33.8%

SMILES: FC(F)(F)c1nnc2cnc3cc(Cl)c(Cl)cc3n12 [Compound 9, 1-trifluoromethyl-7,8-dichloro-1,2,4-triazolo[4,3-a]quinoxaline]
- inhibition at 10 µM [2]: -6%

SMILES: O=c1[nH]c2cc(Cl)c(Cl)cc2n2c(C(F)(F)F)nnc12 [Compound 10, 1-trifluoromethyl-7,8-dichloro-1,2,4-triazolo [4,3-a]quinoxalin-4(5H)-one]
- AMPA % DSPL @ 10 μM ([1]; 10 µM): 56.8% and 38.5%
- inhibition at 10 µM [2]: 40%
- KA % DSPL @ 10 μM [3]: 12.5%

SMILES: Clc1cc2ncc3nnc(-c4ccccc4)n3c2cc1Cl [Compound 11, 1-phenyl-7,8-dichloro-1,2,4-triazolo[4,3-a]quinoxaline]
- AMPA % DSPL @ 10 μM [1]: 1.7%
- inhibition at 10 µM [2]: -3%
- KA % DSPL @ 10 μM [3]: 9.1%

SMILES: O=c1[nH]c2cc(Cl)c(Cl)cc2n2c(-c3ccccc3)nnc12 [Compound 12, 1-Phenyl-7,8-dichloro-1,2,4-triazolo[4,3-a]quinoxalin-4(5H)-one]
- AMPA % DSPL @ 10 μM [1]: 3.6%
- inhibition at 10 µM [2]: -1%
- KA % DSPL @ 10 μM [3]: 8.2%

SMILES: O=c1[nH]c2cc(Cl)c(Cl)cc2n2cnnc12 [Compound 12a, 7,8-dichloro-1,2,4-triazolo[4,3-a]quinoxalin-4(5H)-one]
- AMPA % DSPL @ 10 μM ([1]; 10 µM): 64.3% and 67.9%
- [^3 H]-Glycine Binding % DSPL10 @ 10 μM ([2]; 60 min, 10 µM): 79% and 42%

SMILES: O=c1[nH]c2cc(Cl)cc(Cl)c2n2cnnc12 [Compound 14a, 7,9-dichloro-1,2,4-triazolo[4,3a]quinoxalin-4(5H)-one]
- inhibition at 10 µM [2]: 87%

SMILES: Brc1ccc2ncc3nncn3c2c1 [Compound 15, 8-bromo-1,2,4-triazolo[4,3-a]quinoxaline]
- AMPA % DSPL @ 10 μM [1]: 1.6%
- inhibition at 10 µM [2]: -3%
- KA % DSPL @ 10 μM [3]: -4.3%

SMILES: O=[N+]([O-])c1ccc2c(c1)ncc1nncn12 [Compound 16, 7-nitro-1,2,4-triazolo[4,3-a]quinoxaline]
- AMPA % DSPL @ 10 μM [1]: 1.7%
- inhibition at 10 µM [2]: -5%
- KA % DSPL @ 10 μM [3]: 3.0%

SMILES: O=c1[nH]c2cc([N+](=O)[O-])ccc2n2cnnc12 [Compound 17, 7-nitro-1,2,4-triazolo[4,3-a]quinoxalin-4(5H)-one]
- AMPA % DSPL @ 10 μM ([1]; 10 µM): 85.1% and 77.4%
- inhibition at 10 µM [2]: 52%
- KA % DSPL @ 10 μM [3]: 34.7%

SMILES: O=c1[nH]c2cc([N+](=O)[O-])c([N+](=O)[O-])cc2n2cnnc12 [Compound 18, 7,8-dinitro-1,2,4-triazolo[4,3-a]quinoxalin-4(5H)-one]
- AMPA % DSPL @ 10 μM ([1]; 10 µM): 77.4% and 55.0%
- inhibition at 10 µM [2]: 50%
- KA % DSPL @ 10 μM [3]: 15.6%

SMILES: O=c1[nH]c2ccc(Br)cc2n2nnnc12 [Compound 21, 8-bromotetrazolo[1,5-a]quinoxalin-4(5H)-one]
- AMPA % DSPL @ 10 μM [1]: 10.2%
- inhibition at 10 µM [2]: 6%
- KA % DSPL @ 10 μM [3]: 30.8%

SMILES: O=c1[nH]c2ccc([N+](=O)[O-])cc2n2nnnc12 [Compound 22, 8-nitrotetrazolo[1,5-a]quinoxalin-4(5H)-one]
- AMPA % DSPL @ 10 μM [1]: 0.7%
- inhibition at 10 µM [2]: 0%
- KA % DSPL @ 10 μM [3]: 0.5%

SMILES: O=[N+]([O-])c1ccc2c(c1)ncc1nnnn12 [Compound 23, 7-nitrotetrazolo[1,5-a]quinoxaline]
- AMPA % DSPL @ 10 μM [1]: 1.0%
- inhibition at 10 µM [2]: -1%
- KA % DSPL @ 10 μM [3]: -3.8%

SMILES: O=c1[nH]c2cc([N+](=O)[O-])ccc2n2nnnc12 [Compound 24, 7-nitrotetrazolo[1,5-a]quinoxalin-4(5H)-one]
- AMPA % DSPL @ 10 μM [1]: 38.4%
- inhibition at 10 µM [2]: 2%
- KA % DSPL @ 10 μM [3]: 2.8%

SMILES: O=c1[nH]c2cc([N+](=O)[O-])c([N+](=O)[O-])cc2n2nnnc12 [Compound 25, 7,8-dinitrotetrazolo[1,5-a]quinoxalin-4(5H)-one]
- inhibition at 10 µM [2]: 3%
- KA % DSPL @ 10 μM ([3]; 10 µM): 0.4% and -2.1%

SMILES: [N-]=[N+]=Nc1cc2c(cc1F)ncc1nnnn12 [Compound 26, 7-fluoro-8-azidotetrazoloquinoxaline]
- AMPA % DSPL @ 10 μM [1]: -1.8%
- [^3 H]-Glycine Binding % DSPL10 @ 10 μM [2]: -2%
- KA % DSPL @ 10 μM [3]: 5.5%

SMILES: [N-]=[N+]=Nc1cc2c(cc1F)[nH]c(=O)c1nnnn12 [Compound 27, 7-fluoro-8-azidotetrazoloquinoxalin-4(5H)-one]
- AMPA % DSPL @ 10 μM [1]: 1.7%
- inhibition at 10 µM [2]: 5%
- KA % DSPL @ 10 μM [3]: 2.5%

SMILES: O=c1[nH]c2cc(Cl)c(Cl)cc2n2nnnc12 [Compound 27a, 7,8-dichlorotetrazolo[1,5-a]quinoxalin-4(5H)-one]
- AMPA % DSPL @ 10 μM [1]: 38%
- inhibition at 10 µM [2]: 37%

SMILES: O=c1[nH]c2ccc(Br)cc2c2ccnn12 [Compound 28, 9-bromopyrazolo[1,5-c]quinazolin-5(6H)-one]
- AMPA % DSPL @ 10 μM [1]: 20.7%
- inhibition at 10 µM [2]: 4%
- KA % DSPL @ 10 μM [3]: 2.6%

SMILES: O=c1[nH]c2ccc(Cl)cc2c2ccnn12 [Compound 29, 9-Chloropyrazolo[1,5-c]quinazolin 5(6H)-one]
- AMPA % DSPL @ 10 μM [1]: 23.1%
- inhibition at 10 µM [2]: 5%
- KA % DSPL @ 10 μM [3]: 0.3%

SMILES: O=c1[nH]c2c(Cl)cccc2c2ccnn12 [Compound 30, 7-Chloropyrazolo[1,5-c]quinazolin-5(6H)-one]
- AMPA % DSPL @ 10 μM [1]: 14.8%
- inhibition at 10 µM [2]: 0%
- KA % DSPL @ 10 μM [3]: -0.4%

SMILES: O=c1[nH]c2cc(Cl)ccc2c2ccnn12 [Compound 31, 8-chloropyrazolo[1,5-c]quinazolin-5(6H)-one]
- AMPA % DSPL @ 10 μM [1]: 46%
- inhibition at 10 µM [2]: 42%
- KA % DSPL @ 10 μM [3]: 11.5%

SMILES: O=c1[nH]c2cc(Cl)c(Cl)cc2c2ccnn12 [Compound 32, 8,9-dichloropyrazolo[1,5-c]quinazolin-5(6H)-one]
- AMPA % DSPL @ 10 μM ([1]; 10 µM): 4.9% and 9.3%
- KA % DSPL @ 10 μM [3]: -0.1%
